# Entries after “also recorded” stand apart in the source; their conditions may differ.
# How the values were obtained:
# [1] = Sensory effects of compounds of formula I in chicken broth (triangle test, trained panel); conditions: for kokumi intensity (0-5): broth without additives = 2
# Method: (§1) Unless otherwise indicated, all sensory tests are triangle tests and are performed according to the guidelines in “Amtliche Sammlung von Untersuchungsverfahren nach § 35 LMBG (Lebensmittel-und Bedarfsgegenständegesetz)”; L 00.90 7 , Untersuchung von Lebensmitteln , Sensorische Prüfverfahren, Dreiecksprüfung (Übernahme der gleichnahmigen Deutschen Norm DIN ISO 4120, Ausgabe Januar 1995), as follows:
# (§2) The sensory panel is trained to evaluate the taste of aqueous solutions (4 ml each) of the following standard taste compounds by using a triangle test as described in the literature (Wieser and Belitz, Z. Lebensm. Unters. Forsch., 1975, 159, 65-72): sucrose (40 mmol/L) for sweet taste; citric acid (5 mmol/L) for sour taste; NaCl (12 mmol/L) for salty taste; caffeine (2 mmol/L) for bitter taste; and monosodium glutamate (MSG; 6 mmol/L) for umami taste. For kokumi taste, a solution of glutathione (10 mmol/L) in diluted chicken broth concentrate (Gourmet Bouillon Huhn, Maggi, Singen, Germany; 3 g/100 g bottled water (Evian®)) is prepared and compared to the taste of chicken broth with no glutathione added. All sensory analyses are performed in a sensory panel room at 22-25° C. over three different sessions by a trained panel of 8 to 10 individuals.
# (§3) For recording the taste profiles, samples are prepared as indicated in the examples below. Taste profiles of samples are determined in a triangle test in three different sessions. Panellists refrain from eating or drinking for at least 1 hour prior to the session. At the start of the session and before each trial, the subject rinsed with water and expectorated. The participants receive a set of two blanks and one taste sample. Liquid samples are swirled around in the mouth briefly and expectorated. Solid samples are chewed for 20 seconds and then expectorated. […] Each sample with additive is compared to two reference samples without additives.
# Sensory tests (triangle test) are performed at least three times for each compound using sensory panels of different individuals to confirm results.
# Chicken Broth is prepared by dilution of 3 g chicken broth concentrate (Gourmet Bouillon Huhn; Maggi, Singen, Germany) with 100 ml water (Evian). Additives are added as specified in table below.
# The pH-value of all samples is adjusted to 6.5 using formic acid (0.1 mol/L) or sodium hydroxide (0.1 mol/L).
# Flavour intensity (onion or kokumi) is rated from 0-5 according to a scale from 0 to 5 (with 5 most intensive). GSH (5 mmol/L) is determined to have an kokumi intensity of 3 in all tests.
# The additive is added to a consumable and the sample is homogenised. The samples are presented to the sensory panel directly after homogenisation.
# For each sample, flavour intensity is rated and panelists are asked to describe sensory characteristics.
# [2] = Sensory effects of compounds of formula I in water (triangle test, trained panel); conditions: additive 5 mmol/L
# Method: as §1, §2, §3
# [3] = Onion flavour compounds in barbecue sauce (sensory panel); conditions: barbecue sauce pH 3.3, additive 5 mmol/L
# Method: as §1, §3
# Onion flavour compounds as indicated in the table below are added to barbecue sauce (Kraft Foods, Germany), pH 3.3.
# [4] = Onion flavour compounds in mushroom cream soup (sensory panel); conditions: mushroom cream soup pH 6.0, additive 1 mmol/L
# Method: as §1, §3
# Cys-O—C2H5and γ-Glu-Cys-O—C2H5are added to mushroom cream soup (Unox, Unilever Bestfoods, Germany), pH 6.0 in a concentration of 1 mmol/L samples are evaluated directly after homogenisation.
# [5] = Onion flavour compounds in tomato soup (sensory panel)
# Method: as §1, §3
# Cys-O—C2H5 and γ-Glu-Cys-O—C2H5 are added to tomato soup (Unox, Unilever Bestfoods, Germany, pH 4,5), in the concentrations indicated below.
# [6] = chicken broth pH 6.5, additive 5 mmol/L
# [7] = chicken broth pH 6.5, additive 5 mmol/L, scale 0 to 5 (5 most intensive)
# [8] = chicken broth pH 6.5, additive 5 mmol/L, scale 0 to 5
# [9] = tomato soup pH 4,5, additive 1 mmol/L
# [10] = tomato soup pH 4,5, additive 5 mmol/L
# [11] = chicken broth pH 6.5, additive 10 mmol/L (positive control)
# [12] = chicken broth pH 6.5, additive 30 mmol/L (positive control)
Molecule,"Sensory descriptors [1, 6]","onion flavour intensity (0-5) [1, 7]","kokumi intensity (0-5) [1, 8]",Onion flavour intensity [2],Sensory description [2],other results
"N[C@@H](CS)C(=O)O [Cys-OH, reference compound]",increased sweetness,0,2,0,sweet,–
CCOC(=O)[C@@H](N)CS [Cys-O—C2H5],onion flavour,3,2,3.5,onion flavour,"Test results (sensory description versus reference) [3]: Preferred, onion like flavour, meaty; Test results (sensory description versus reference) [4]: Preferred, onion like flavour; panelists indicating an onion like flavour [4]: 7 out of 8; Test results (sensory description versus reference) [5, 9]: onion like and slightly meaty flavour; also recorded: Preferred, onion like flavour, slightly meaty; Test results (sensory description versus reference) [5, 10]: onion like and slightly meaty flavour"
COC(=O)[C@@H](N)CS [Cys-O—CH3],onion flavour,2,2,2.5,onion flavour,–
"N[C@@H](CCC(=O)N[C@@H](CS)C(=O)NCC(=O)O)C(=O)O [GSH, reduced form, glutathione, reference compound]",increased kokumi taste,0,3,–,–,–
"N[C@@H](CCC(=O)O)C(=O)[O-].[Na+] [MSG, mono sodium glutamate, reference compound]",–,–,–,–,–,"Sensory descriptors [1, 11]: increased umami taste; onion flavour intensity (0-5) [1, 11]: 0; kokumi intensity (0-5) [1, 11]: 2"
CSCC[C@H](N)C(=O)O [Met-OH],–,–,–,0,sweet,–
CCOC(=O)[C@@H](N)CCSC [Met-O—C2H5],slight onion flavour,1.5,2,1.5,slight onion flavour,–
COC(=O)[C@@H](N)CCSC [Met-O—CH3],slight onion flavour,0.5,2,1,slight onion flavour,–
"[Cl-].[Na+] [NaCl, reference compound]",–,–,–,–,–,"Sensory descriptors [1, 12]: increased salt taste; onion flavour intensity (0-5) [1, 12]: 0; kokumi intensity (0-5) [1, 12]: 2"
CCOC(=O)[C@@H](N)CO [Ser-O—C2H5],–,–,–,0,slightly sweet,–
COC(=O)[C@@H](N)CO [Ser-O—CH3],–,–,–,0,slightly sweet,–
CCOC(=O)CNC(=O)[C@H](CS)NC(=O)CC[C@H](N)C(=O)O [γ-Glu-Cys-Gly-O—C2H5],–,–,–,0,intensely bitter,–
"N[C@@H](CCC(=O)N[C@@H](CS)C(=O)O)C(=O)O [γ-Glu-Cys-OH, reference compound]",increased kokumi taste,0,4,0,tasteless,–
CCOC(=O)[C@H](CS)NC(=O)CC[C@H](N)C(=O)O [γ-Glu-Cys-O—C2H5],"strong onion flavour, increased",4,3.5,4.5,onion flavour,"Test results (sensory description versus reference) [3]: more roasty; also recorded: kokumi taste; also recorded: Preferred, strong onion like flavour, meaty,; Test results (sensory description versus reference) [4]: the observed effect is higher; also recorded: Preferred, strong onion like flavour, meaty,; Test results (sensory description versus reference) [5, 9]: more roasty; also recorded: Preferred, onion like flavour, meaty, roasty, slightly; Test results (sensory description versus reference) [5, 10]: Preferred, strong onion like flavour, meaty, roasty, more; Panel description in text (difference, preference, kokumi taste) ([5]; tomato soup pH 4,5, samples with 1 mmol/L and 5 mmol/L taken together): kokumi taste"
γ-Glu-Cys(S—C2H5)-Gly-O—C2H5,–,–,–,0,intensely bitter,–

# From US20080268123A1, “Onion Flavoured Compounds and Use” (GIVAUDAN SA, priority 2005, published 2008)
